Data from patent US20230416247A1, “DRUG-LIKE MOLECULES AND METHODS FOR THE THERAPEUTIC TARGETING OF MICRORNA-21” (University of Washington, priority 2020, published 2023).
Entries after “also recorded” stand apart in the source; their conditions may differ. Read-outs that look alike come from different tables or passages of the source.

Columns and labels:
[1] = tested on: PDCD4 in AGS cells; test: Western blot of PDCD4 in AGS cells; type: cell-based, human; conditions: 48 hours of incubation, relative to DMSO control, normalized to β-actin
Description: Data in FIG. 16B are reported as enhancement of PDCD4 levels, relative to DMSO control (no compound added).
Western blot analysis. Western blot analysis was conducted according to standard protocols. Briefly, proteins were collected from cells and lysed and the Bradford assay was used to measure protein concentrations. Quantification of protein expression was conducted using the image analysis software ImageJ.

[2] = tested on: mature miR-21 and pre-miR-21 in ASPC1 cells; test: qRT-PCR of mature miR-21 and pre-miR-21 in ASPC1 cells; type: cell-based, human; conditions: ASPC1, 10 nmoles, 48 hours, relative to DMSO control
Description: FIGS. 13A-13D compare levels of mature miR-21 and pre-mi-21 measured in gastric adenocarcinoma (AGS) (FIGS. 13A and 13B, respectively) and pancreatic cancer cell line (ASPC 1) (FIGS. 13C and 13D, respectively), normalized to internal controls (U6 or U8 snRNA), in the presence of 10 nmoles of palbociclib (used here as a negative control, not expected to affect microRNA levels) and compounds −0045 and −0052, 48 hours after incubation, relative to DMSO control, and measured by standard qRT-PCR. Statistically significant changes are labeled with asterisks.
Levels of mature miR-21 and its precursor pre-miR-21 were measured in gastric carcinoma (ASG) and pancreatic (ASPC1) cancer cell lines under conditions where we observed a decrease in proliferation (FIGS. 13A-13D), using the same blind format described above.
Cell line maintenance. Using the Cancer Cell Line Encyclopedia (CCLE), in-house cancer cell lines were screened to identify cancer and tissue types with varying levels of miR-21 expression. Experiments were performed using the human-derived cell lines AGS (gastric cancer) and AsPC-1 (pancreatic cancer). Cell lines were obtained from the American Type Culture Collection and maintained per instructions from the supplier. AGS were cultured in F12K medium supplemented with 10% FBS. AsPC-1 were cultured in RPMI, with 10% FBS added. All cells were kept at 37° C. in a humidified atmosphere of 5% CO2 and underwent regular mycoplasma testing. All experiments were conducted when cells were 70-80% confluent.
Quantitative real time PCR analysis. RNA was isolated utilizing Trizol (Invitrogen) and the Direct-zol RNA Miniprep kit (Zymo Research). RNA concentration was assessed with the NanoDrop ND-1000 spectrophotometer (ThermoFisher Scientific). All microRNAs expression was tested in the two representative cell lines using qRT-PCR. Cells were seeded in 6-well plates 24 hours before treatment, at a cell confluency of 50-60%. Each cell line was treated with 10 μM compound or with only the dimethyl sulfoxide (DMSO) solvent. RNA was collected after the 48-hour time point. Expression of miR-21 was assessed utilizing the TaqMan microRNA assay (Applied Biosystems). The complementary DNA (cDNA) was synthesized using the TaqMan Reverse Transcription Reagents kit (Applied Biosystems) and was used with the TaqMan probes and Supermix (BioRad) for qRT-PCR analysis. U6 or U48 were used as internal controls for RNA levels. All experiments were performed in triplicate, with all samples normalized to the internal controls and relative expression levels calculated using the 2^ΔΔCt method.

[3] = biological target: pre-miR21; test: 1D 1H NMR ligand-detect titration of compounds with pre-miR21 RNA; type: binding, human
Description: FIG. 6 compares the binding of representative compounds of the invention (see FIG. 5) to pre-miR21. 1D ^1H NMR ligand-detect titrations of compounds, generated by titrating in increasing concentrations of RNA into a solution containing 100 μM of the relevant compound in buffer containing 50 mM deuterated Tris at pH 6.5, as well as 250 mM NaCl, 50 mM KCl and 2 mM MgCl2. As increasing amounts of compounds are bound to the RNA in the course of the titration, the line width of the NMR signal increases, and the NMR peak height decreases. The fraction of compound bound can be calculated from the decrease in […] relative to an internal standard. Saturation of the curves to a value of 1 indicates the predominant presence of a single site with high binding affinity. Approximate binding constants can be calculated by fitting the data points to a binding isotherm. For reference, the data fit for compound −0052 corresponds to a Kd=200 nM, while compound −0045 corresponds to a Kd=600 nM.
The compounds show a strong pre-miR21 binding capacity.
RNA Transcription. All RNAs for ligand screening and structural or biochemical work were prepared in house using in vitro transcription on a large scale (typically 10 mL). RNA transcription and purification protocols used purified DNA oligonucleotide templates (IDT) and T7 RNA polymerase. Briefly, 1 mL of 8 μM TOP DNA (5′-CTATAGTGAGTCGTATTA-3′ (SEQ ID NO: 1)), corresponding to the phage T7 RNA polymerase promoter region, was annealed to 80 μL of 100 μM template sequences with 13 mM MgCl2, heated to 95° C. for […] then allowed to anneal to room temperature over 20 min. The annealing mixture was incubated with 5 mM of each of the four NTPs (ATP, GTP, UTP and CTP, from Sigma), transcription buffer, 8% PEG-8000 and 35 mM magnesium chloride with 0.4 mg/mL T7 RNA polymerase expressed and purified using established methods. All RNA samples are purified from crude transcriptions by 20% denaturing polyacrylamide gel electrophoresis (PAGE), electroeluted and concentrated by ethanol precipitation. The samples are re-dissolved in 12 mL of high salt wash (700 mM NaCl, 200 mM KCl, in 10 mM potassium phosphate at pH 6.5, with 10 μM EDTA to chelate any divalent ions), concentrated using Centriprep conical concentrators ([…] MWC, Millipore). The RNA was then slowly exchanged into low salt storage buffer (10 mM potassium phosphate at pH 6.5, with 10 mM NaCl and 10 μM EDTA). Prior to NMR experiments, all RNA samples were finally desalted using NAP-10 gravity columns, lyophilized and re-dissolved in ‘screening buffer’ or ‘structure buffer’ (see below), then annealed by heating for 4 min to 90° C. and snap cooling at −20° C.

[4] = 100 μM compound, 50 mM deuterated Tris pH 6.5, 250 mM NaCl, 50 mM KCl, 2 mM MgCl2, approximate, read-out: Kd (fit of NMR titration data to binding isotherm)
[5] = estimated, FIG. 6, read-out: KD for pre-miR21

Structure (SMILES)	levels of PDCD4 (Western blot) ([1]; listed as −0052)	decrease in mature miR-21 levels [2]	pre-miR-21 levels [2]	Kd [3, 4]	Kd [3, 5]	levels of PDCD4 (Western blot) ([1]; listed as −0045)
O=c1[nH]c(Nc2ccc(N3CCNCC3)cn2)nc2cnccc12 [Compound 30]	an increase was observed; also recorded: increase levels of PDCD4	40%	reduction in pre-miR-21 levels	200 nM	200 nM	–
O=c1[nH]c(Nc2ccc(N3CCNCC3)cn2)nc2cccnc12 [Compound 25]	–	40%	reduction in pre-miR-21 levels	600 nM	600 nM	an increase was observed; also recorded: increase levels of PDCD4
